{"source": "patent US20160355483A1", "about": "“COMPOUND BINDING TO PPARG BUT NOT ACTING AS PROMOTER AND PHARMACEUTICAL COMPOSITION FOR TREATING PPARG-RELATED DISEASES CONTAINING SAME AS ACTIVE INGREDIENT” (Hyundai Pharm Co., Ltd., priority 2014, published 2016)", "target": "T1, PPARG (peroxisome proliferator activated receptor-gamma), GST-PPARG-LBD (Homo sapiens, UniProt P37231)", "T1 construct": "15 μL of 5 nM GST-PPARG-LBD and 5 nM Tb-GST-antibody were added; purchased Invitrogen PV4894", "T1 sequence (P37231 238-503 limits assumed)": "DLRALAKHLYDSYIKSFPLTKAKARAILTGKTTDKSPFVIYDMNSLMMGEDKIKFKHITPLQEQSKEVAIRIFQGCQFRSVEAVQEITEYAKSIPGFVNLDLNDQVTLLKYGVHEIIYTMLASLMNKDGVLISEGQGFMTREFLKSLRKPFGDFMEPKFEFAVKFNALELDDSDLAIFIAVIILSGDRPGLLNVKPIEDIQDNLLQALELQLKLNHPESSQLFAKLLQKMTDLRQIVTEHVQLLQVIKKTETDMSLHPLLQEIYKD", "assay": "LanthaScreen TR-FRET PPARG Competitive Binding Assay", "parameters": "key: “+” indicates the degree of the binding activity, and as the number of “+” increases, the binding activity is stronger; ++: “+” indicates the degree of the binding activity, and as the number of “+” increases, the binding activity is stronger; +++: “+” indicates the degree of the binding activity, and as the number of “+” increases, the binding activity is stronger; ++++: “+” indicates the degree of the binding activity, and as the number of “+” increases, the binding activity is stronger", "details": "degree of binding activity", "method": "The following experiment was performed to evaluate the PPARG (peroxisome proliferator activated receptor-gamma) binding capacity and transcriptional activity of the compounds prepared in the examples of the invention. For the experiment, LanthaScreen™ TR-FRET PPARG Competitive Binding Assay Kit (PV4894, Invitrogen) was used according to the manufacturer's instruction. […] The mixture was loaded in a 384-well plate (Greiner, 784075) by 20 μL per well, followed by reaction at room temperature for 1 hour. Upon completion of the reaction, fluorescence value was measured by using Flexstation 3 (Molecular Devices) with time-resolved fluorescence (RFU) mode (excitation 1: 340 nm, emission 1: 518 nm, excitation 2: 340 nm, emission 2: 488 nm, integration delay 50 μs, integration 400 μs). The results were calculated by using 518 nm RFUs/488 nm RFUs ratio. The activity of the compounds of the invention was compared with that of the vehicle, which was calculated by ratio according to the formula [100%−compound of the example ratio/vehicle ratio]. At this time, the binding activity ratio to rosiglitazone was compared.", "data": [{"smiles": "C[C@H](NC(=O)c1ccc2c(c1)CCCN2Cc1ccc(-c2ccccc2C(=O)O)cc1)c1ccccc1", "note": "[Example 1, (S)-4′-((6-((1-phenylethyl)carbamoyl)-3,4-dihydroquinoline-1(2H)-yl)methyl)-[1,1′-biphenyl]-2-carboxylic acid]", "values": [{"measurement": "Binding assay (1 μLM)", "result": "+++"}]}, {"smiles": "C[C@H](NC(=O)c1ccc2c(c1)CCCN2Cc1ccc(-c2ccccc2C(N)=O)cc1)c1ccccc1", "note": "[Example 2, (S)-1-((2′-carbamoyl-[1,1′-biphenyl]-4-yl)methyl)-N-(1-phenylethyl)-1,2,3,4-tetrahydroquinoline-6-carboxamide]", "values": [{"measurement": "Binding assay (1 μLM)", "result": "+++"}]}, {"smiles": "C[C@H](NC(=O)c1ccc2c(c1)CCCN2Cc1ccc(-c2ccccc2C(=O)O)cc1)c1ccc([N+](=O)[O-])cc1", "note": "[Example 3, (S)-4′-((6-((1-(4-nitrophenyl)ethyl)carbamoyl)-3,4-dihydroquinoline-1(2H)-yl)methyl)-[1,1′-biphenyl]-2-caboxylic acid]", "values": [{"measurement": "Binding assay (1 μLM)", "result": "+"}]}, {"smiles": "Cc1cc(F)ccc1[C@H](C)NC(=O)c1ccc2c(c1)CCCN2Cc1ccc(-c2ccccc2C(=O)O)cc1", "note": "[Example 4, (S)-4′-((6-((1-(4-fluoro-2-methylphenyl)ethyl)carbamoyl)-3,4-dihydroquinoline-1(2H)-yl)methyl)-[1,1′-biphenyl]-2-carboxylic acid]", "values": [{"measurement": "Binding assay (1 μLM)", "result": "+++"}]}, {"smiles": "Cc1ccc([C@H](C)NC(=O)c2ccc3c(c2)CCCN3Cc2ccc(-c3ccccc3C(=O)O)cc2)cc1F", "note": "[Example 5, (S)-4′-((6-((1-(3-fluoro-4-methylphenyl)ethyl)carbamoyl)-3,4-dihydroquinoline-1(2H)-yl)methyl)-[1,1′-biphenyl]-2-caboxylic acid]", "values": [{"measurement": "Binding assay (1 μLM)", "result": "++"}]}, {"smiles": "C[C@H](NC(=O)c1ccc2c(c1)CCCN2Cc1ccc(-c2ccccc2C(=O)O)cc1)c1ccc(F)cc1", "note": "[Example 6, (S)-4′-((6-((1-(4-fluorophenyl)ethyl)carbamoyl)-3,4-dihydroquinoline-1(2H)-yl)methyl)-[1,1′-biphenyl]-2-caboxylic acid]", "values": [{"measurement": "Binding assay (1 μLM)", "result": "+++"}]}, {"smiles": "C[C@H](NC(=O)c1ccc2c(c1)CCCN2Cc1ccc(-c2ccccc2C(=O)O)cc1)c1ccc(Br)cc1", "note": "[Example 7, (S)-4′-((6-((1-(4-bromophenyl)ethyl)carbamoyl)-3,4-dihydroquinoline-1(2H)-yl)methyl)-[1,1′-biphenyl]-2-caboxylic acid]", "values": [{"measurement": "Binding assay (1 μLM)", "result": "++++"}]}, {"smiles": "O=C(NCc1ccc([N+](=O)[O-])cc1)c1ccc2c(c1)CCCN2Cc1ccc(-c2ccccc2C(=O)O)cc1", "note": "[Example 8, 4′-((6-((4-nitrobenzyl)carbamoyl)-3,4-dihydroquinoline-1(2H)-yl)methyl)-[1,1′-biphenyl]-2-carboxylic acid]", "values": [{"measurement": "Binding assay (1 μLM)", "result": "+++"}]}, {"smiles": "C[C@H](NC(=O)c1ccc2c(c1)CCCN2Cc1ccc(-c2ccccc2C(=O)O)cc1)c1cccc(Cl)c1", "note": "[Example 9, (S)-4′-((6-((1-(3-chlorophenyl)ethyl)carbamoyl)-3,4-dihydroquinoline-1(2H)-yl)methyl)-[1,1′-biphenyl]-2-caboxylic acid]", "values": [{"measurement": "Binding assay (1 μLM)", "result": "++++"}]}, {"smiles": "C[C@H](NC(=O)c1ccc2c(c1)CCCN2Cc1ccc(-c2ccccc2C(=O)O)cc1)c1cccc2ccccc12", "note": "[Example 10, (S)-4′-((6-((1-(naphthalene-1-yl)ethyl)carbamoyl)-3,4-dihydroquinoline-1(2H)-yl)methyl)-[1,1′-biphenyl]-2-carboxylic acid]", "values": [{"measurement": "Binding assay (1 μLM)", "result": "+++"}]}, {"smiles": "C[C@H](NC(=O)c1ccc2c(c1)CCCN2Cc1ccc(-c2ccccc2C(=O)O)cc1)c1ccc(OC(F)(F)F)cc1", "note": "[Example 11, (s)-4′-((6-((1-(4-(trifluoromethoxy)phenyl)ethyl)carbamoyl)-3,4-dihydroquinoline-1(2H)-yl)methyl)-[1,1′-biphenyl]-2-carboxylic acid]", "values": [{"measurement": "Binding assay (1 μLM)", "result": "++++"}]}, {"smiles": "C[C@H](NC(=O)c1ccc2c(c1)CCCN2Cc1ccc(-c2ccccc2C(=O)O)cc1)c1ccc(C(F)(F)F)cc1", "note": "[Example 12, (S)-4′-((6-((1-(4-(trifluoromethyl)phenyl)ethyl)carbamoyl)-3,4-dihydroquinoline-1(2H)-yl)methyl)-[1,1′-biphenyl]-2-carboxylic acid]", "values": [{"measurement": "Binding assay (1 μLM)", "result": "++++"}]}, {"smiles": "C[C@H](NC(=O)c1ccc2c(c1)CCCN2Cc1ccc(-c2ccccc2C(=O)O)cc1)c1ccc(SC(F)(F)F)cc1", "note": "[Example 13, (S)-4′-((6-((1-(4-((trifluoromethyl)thio)phenyl)ethyl)carbamoyl)-3,4-dihydroquinoline-1 (2H)-yl)methyl)-[1,1′-biphenyl]-2-carboxylic acid]", "values": [{"measurement": "Binding assay (1 μLM)", "result": "++++"}]}, {"smiles": "O=C(NC1COc2ccccc2C1)c1ccc2c(c1)CCCN2Cc1ccc(-c2ccccc2C(=O)O)cc1", "note": "(stereo not drawn) [Example 15, 4′-((6-(cromene-3-ylcarbamoyl)-3,4-dihydroquinoline-1(2H)-yl)methyl)-[1,1′-biphenyl]-2-carboxylic acid]", "values": [{"measurement": "Binding assay (1 μLM)", "result": "+"}]}, {"smiles": "C[C@H](NC(=O)c1ccc2c(c1)CCCN2Cc1ccc(-c2ccccc2C(=O)O)cc1)c1c(F)cccc1F", "note": "[Example 16, (S)-4′-((6-((1-(2,6-fluorophenyl)ethyl)carbamoyl)-3,4-dihydroquinoline-1 (2H)-yl)methyl)-[1,1′-biphenyl]-2-carboxylic acid]", "values": [{"measurement": "Binding assay (1 μLM)", "result": "+++"}]}, {"smiles": "C[C@H](NC(=O)c1ccc2c(c1)CCCN2Cc1ccc(-c2ccccc2C(=O)O)cc1)c1cccc(F)c1", "note": "[Example 17, (S)-4′-((6-((1-(3-fluorophenyl)ethyl)carbamoyl)-3,4-dihydroquinoline-1(2H)-yl)methyl)-[1,1′-biphenyl]-2-caboxylic acid]", "values": [{"measurement": "Binding assay (1 μLM)", "result": "+++"}]}, {"smiles": "C[C@H](NC(=O)c1ccc2c(c1)CCCN2Cc1ccc(-c2ccccc2C(=O)O)cc1)c1cccc(OC(F)(F)F)c1", "note": "[Example 18, (S)-4′-((6-((1-(3-(trifluoromethoxy)phenyl)ethyl)carbamoyl)-3,4-dihydroquinoline-1(2H)-yl)methyl)-[1,1′-biphenyl]-2-carboxylic acid]", "values": [{"measurement": "Binding assay (1 μLM)", "result": "+++"}]}, {"smiles": "C[C@H](NC(=O)c1ccc2c(c1)CCCN2Cc1ccc(-c2ccccc2C(=O)O)cc1)c1cccc(C(F)(F)F)c1", "note": "[Example 19, (S)-4′-((6-((1-(3-(trifluoromethyl)phenyl)ethyl)carbamoyl)-3,4-dihydroquinoline-1(2H)-yl)methyl)-[1,1′-biphenyl]-2-carboxylic acid]", "values": [{"measurement": "Binding assay (1 μLM)", "result": "+++"}]}, {"smiles": "C[C@H](NC(=O)c1ccc2c(c1)CCCN2Cc1ccc(-c2ccccc2C(=O)O)cc1)c1ccc2ccccc2c1", "note": "[Example 20, (S)-4′-((6-((1-(naphthalene-2-yl)ethyl)carbamoyl)-3,4-dihydroquinoline-1(2H)-yl)methyl)-[1,1′-biphenyl]-2-carboxylic acid]", "values": [{"measurement": "Binding assay (1 μLM)", "result": "++++"}]}, {"smiles": "C[C@H](NC(=O)c1ccc2c(c1)CCCN2Cc1ccc(-c2ccccc2C(=O)O)cc1)c1ccc(F)c(F)c1", "note": "[Example 21, (S)-4′-((6-((1-(3,4-fluorophenyl)ethyl)carbamoyl)-3,4-dihydroquinoline-1 (2H)-yl)methyl)-[1,1′-biphenyl]-2-carboxylic acid]", "values": [{"measurement": "Binding assay (1 μLM)", "result": "+++"}]}, {"smiles": "COc1cccc([C@H](C)NC(=O)c2ccc3c(c2)CCCN3Cc2ccc(-c3ccccc3C(=O)O)cc2)c1", "note": "[Example 22, (S)-4′-((6-((1-(3-methoxyphenyl)ethyl)carbamoyl)-3,4-dihydroquinoline-1(2H)-yl)methyl)-[1,1′-biphenyl]-2-caboxylic acid]", "values": [{"measurement": "Binding assay (1 μLM)", "result": "+++"}]}, {"smiles": "COc1ccccc1[C@H](C)NC(=O)c1ccc2c(c1)CCCN2Cc1ccc(-c2ccccc2C(=O)O)cc1", "note": "[Example 23, (S)-4′-((6-((1-(2-methoxyphenyl)ethyl)carbamoyl)-3,4-dihydroquinoline-1(2H)-yl)methyl)-[1,1′-biphenyl]-2-carboxylic acid]", "values": [{"measurement": "Binding assay (1 μLM)", "result": "+++"}]}, {"smiles": "C[C@H](NC(=O)c1ccc2c(c1)CCCN2Cc1ccc(-c2ccccc2C(=O)O)cc1)c1ccccc1F", "note": "[Example 24, (S)-4′-((6-((1-(2-fluorophenyl)ethyl)carbamoyl)-3,4-dihydroquinoline-1(2H)-yl)methyl)-[1,1′-biphenyl]-2-caboxylic acid]", "values": [{"measurement": "Binding assay (1 μLM)", "result": "+++"}]}, {"smiles": "C[C@H](NC(=O)c1ccc2c(c1)CCCN2Cc1ccc(-c2ccccc2C(=O)O)cc1)c1ccccc1C(F)(F)F", "note": "[Example 25, (S)-4′-((6-((1-(2-(trifluoromethyl)phenyl)ethyl)carbamoyl)-3,4-dihydroquinoline-1(2)-yl)methyl)-[1,1′-biphenyl]-2-carboxylic acid]", "values": [{"measurement": "Binding assay (1 μLM)", "result": "+++"}]}]}
